Test results taken from US20030096311A1, “Screening method for compounds” (priority 2000, published 2003).

Key:
IFN-γ [1] = biological target: T1, IFN-γ (Homo sapiens, UniProt P01579); assay: ELISA detection of IFN-γ after overnight cell-free incubation with BP; format: binding; details: overnight with BP 500 μg/ml
T1 sequence (P01579 24-161 limits assumed): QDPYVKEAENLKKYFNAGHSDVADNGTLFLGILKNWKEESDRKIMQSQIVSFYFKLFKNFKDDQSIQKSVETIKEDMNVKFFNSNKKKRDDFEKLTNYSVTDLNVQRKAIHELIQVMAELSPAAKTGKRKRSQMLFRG
Experimental: The generation of PBMC supernatants and RNA used for this method were prepared as follows. PBMC ([…]) were incubated in RPMI-1640 medium containing TCH (ICN) with or without PHA (Sigma, 2.5 μg/ml). At each time point, samples were centrifuged for 5 min at 400 g, the supernatants collected and analyzed of IFN-γ by ELISA (IDS, Boldon, UK).
Purified recombinant IFN-γ or cell-free supernatants from stimulated PBMC were incubated overnight with BP (500 μg/ml), then assayed by ELISA, Supernatant 1, PBMC stimulated for 20 hours with IL-2; supernatant 2, PBMC stimulated for 43 hours with IL-2; supernatant 3, PBMC stimulated for 43 hours with PHA.

IL-4 = biological target: T2, IL-4 (Homo sapiens, UniProt P05112); assay: Western blot with anti-BP antibody: comparative study with IL-4; format: binding; details: IL-4 in place of IFN-γ; compared with IFN-γ
T2 sequence (P05112 25-153): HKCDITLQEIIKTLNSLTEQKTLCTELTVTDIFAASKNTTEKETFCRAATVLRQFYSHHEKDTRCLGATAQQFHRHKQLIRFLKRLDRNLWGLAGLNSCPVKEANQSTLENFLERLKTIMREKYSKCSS
Experimental: (§1) SDS-PAGE and Western Blotting techniques using for this method were performed as follows. Carrier-free recombinant human IFN-γ (PeproTech, London, UK) was made to 10 μg/ml and incubated overnight with or without BP (final concentrations 25, 5, 0.5 mg/ml). At the end of the incubation period, 5×loading buffer was added and 20 μl of each sample loaded onto SDS-polyacrylamide gels. The gels were then analyzed by Western blotting, using a rabbit polyclonal anti-BP antibody. A comparative study was conducted using IL-4 in place of IFN-γ.
(§2) Carrier-free recombinant human IFN-γ (PeproTech, London, UK) were made to 10 μg/ml and incubated overnight with or without Benzyl Penicillin (BP) (final concentrations: 25, 5, 0.5 mg/ml). At the end of the incubation period, 5×loading buffer was added and 20 μl of each sample loaded onto SDS-polyacrylamide gels. For all samples, aliquots were then analyzed by Western blotting, using a rabbit polyclonal anti-BP antibody. A comparative study was conducted using IL-4 in place of IFN-γ.

IFN-γ [2] = biological target: T3, IFN-γ (Homo sapiens, UniProt P01579); assay: IFN-γ induction of MHC class II DR on peripheral blood monocytes after BP pre-incubation; format: cell-based; details: IFN-γ 1 μg/ml pre-incubated overnight with various concentrations of BP; HMC-1 pulsed, co-cultured with PBM
T3 sequence (P01579 24-166): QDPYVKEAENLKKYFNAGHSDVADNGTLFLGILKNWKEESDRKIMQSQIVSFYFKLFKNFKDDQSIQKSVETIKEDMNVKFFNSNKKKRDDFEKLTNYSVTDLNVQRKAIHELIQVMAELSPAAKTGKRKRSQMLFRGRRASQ
Experimental: Referring now to FIG. 2, there is shown a graph illustrating the results of a determination of whether the effect of conjugation or interaction of the substance, BP, with IFN-γ has an effect on IFN-γ activity. In summary, IFN-γ was tested for induction of MHC class II DR on human peripheral blood monocytes (PBM) as follows.
IFN-γ (1 μg/ml) was incubated overnight with various concentrations of BP. HMC-1 cells were pulsed with or without IFN-γ (10 ng/ml), BP, or BP-treated IFN-γ, for 30 min and washed 3 times in PBS. The cells were resuspended in IFS and co-cultured (2×10^5) overnight with PBM (2×10^5) in a total volume of 200 μl in polypropylene tubes (Falcon). Six tubes were set up for each HMC-1 treatment.

IFN-γ [3] = biological target: T3, IFN-γ; assay: IFN-γ mediated up-regulation of MCP-1 mRNA in A549 cells (RNase protection); format: cell-based
IFN-γ [4] = biological target: T3, IFN-γ; assay: Western blot with anti-BP antibody: conjugation of BP to IFN-γ; format: binding; parameters: purchased PeproTech, London, UK; details: IFN-γ 10 μg/ml overnight with BP 25, 5, 0.5 mg/ml
Experimental: as §1
Referring now to FIG. 1, there is shown a Western blot illustrating the conjugation of BP to or interaction of BP to IFN-γ. FIG. 1 illustrates a method by which conjugation or interaction of a substance with a cytokine, namely IFN-γ, can be determined.
as §2

`CC1(C)S[C@@H]2[C@H](NC(=O)Cc3ccccc3)C(=O)N2[C@H]1C(=O)O` [BP, benzyl penicillin] was tested. Which “IFN-γ (pg/ml) detected with BP” value (IFN-γ [1]; PBMC supernatant 1 (IL-2, 20 hours), without BP 152) did it give?
The value was 0 pg/mL.

And the “IFN-γ (pg/ml) detected with BP” value (IFN-γ [1]; PBMC supernatant 2 (IL-2, 43 hours), without BP 389)?
Its value is 0 pg/mL.

And the “IFN-γ (pg/ml) detected with BP” value (IFN-γ [1]; PBMC supernatant 3 (PHA, 43 hours), without BP >400)?
The value was 92 pg/mL.

And the “IFN-γ (pg/ml) detected with BP” value (IFN-γ [1]; recombinant IFN-γ 200 pg/ml, without BP 192)?
Its value is 13 pg/mL.

And the “IFN-γ (pg/ml) detected with BP” value (IFN-γ [1]; recombinant IFN-γ 1000 pg/ml, without BP 1015)?
The value was 70 pg/mL.

What about the “conjugation to IL-4” value (IL-4) of the same molecule?
The value was “conjugates to IL-4, though to a substantially lesser degree than to IFN-γ”.

And the “IFN-γ bioactivity (increase in DR median fluorescence on PBM)” value (IFN-γ [2])?
The value was “reduced its bioactivity in a concentration dependent manner”.

And the “induction of MCP-1 mRNA by IFN-γ” value (IFN-γ [3]; BP mixed with IFN-γ immediately before addition to A549 cells, lanes 10-12)?
Its value is “less marked inhibiting effect”.

And the “induction of MCP-1 mRNA by IFN-γ” value (IFN-γ [3]; IFN-γ pre-incubated overnight with BP (20 or 10 mg/ml), A549 cells, 2 hours, lanes 4-6)?
Its value is “inhibited induction of MCP-1 mRNA”.

What about the “conjugation to IFN-γ” value (IFN-γ [4]) of the same molecule?
The value was “conjugates to IFN-γ”.
